Laboratory results reported in PubChem BioAssay (NCI).
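Compound exposure: 48 hours, 5 concentrations, 96-well plates. GI50: concentration for 50% inhibition of growth. The concentration for full growth arrest is given as TGI.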

Assays:
Experiment in all cases: inhibition of tumour cell growth, NCI panel, 48 h
HOP-92 NSCLC = test system: HOP-92 NSCLC
OVCAR-4 ovarian = test system: OVCAR-4 ovarian
U251 CNS = test system: U251 CNS
MOLT-4 leukemia = test system: MOLT-4 leukemia
BT-549 breast = test system: BT-549 breast
HCT-15 colon = test system: HCT-15 colon
SF-268 CNS = test system: SF-268 CNS
HL-60(TB) leukemia = test system: HL-60(TB) leukemia
MDA-MB-435 = test system: MDA-MB-435
SW-620 colon = test system: SW-620 colon

Structure (SMILES) | TGI (HOP-92 NSCLC) | TGI (OVCAR-4 ovarian) | TGI (U251 CNS) | TGI (MOLT-4 leukemia) | TGI (BT-549 breast) | TGI (HCT-15 colon) | TGI (SF-268 CNS) | TGI (HL-60(TB) leukemia) | TGI (MDA-MB-435) | TGI (SW-620 colon) | GI50 (HOP-92 NSCLC) | GI50 (OVCAR-4 ovarian) | GI50 (U251 CNS) | GI50 (MOLT-4 leukemia) | GI50 (BT-549 breast) | GI50 (HCT-15 colon) | GI50 (SF-268 CNS) | GI50 (HL-60(TB) leukemia) | GI50 (MDA-MB-435) | GI50 (SW-620 colon)
CCN(C)c1nc(N(C)CC)c2nc(N(C)CC)nc(N(C)CC)c2n1 | > 100000 nM | > 100000 nM | > 100000 nM | > 100000 nM | > 100000 nM | > 100000 nM | > 100000 nM | > 100000 nM | > 100000 nM | > 100000 nM |  |  |  |  |  |  |  |  |  | 
OC1(c2ccc(Cl)c(C(F)(F)F)c2)CCN(CCCC(c2ccc(F)cc2)c2ccc(F)cc2)CC1 | 1170 nM | 1820 nM | 1450 nM | 2380 nM | 2100 nM | 1750 nM | 1880 nM | 2020 nM | 1530 nM | 1430 nM | 448 nM | 804 nM | 784 nM | 1030 nM | 1090 nM | 888 nM | 894 nM | 1010 nM | 819 nM | 760 nM
O=C(OCc1ccc2c(Br)cc(Br)c(O)c2n1)c1cc2ccccc2[nH]1 | 2150 nM | 2310 nM | 2910 nM | 2490 nM | 2060 nM | 1030 nM | 2910 nM | 2940 nM | 2080 nM | 1130 nM | 548 nM | 959 nM | 1400 nM | 488 nM | 706 nM | 314 nM | 1440 nM | 615 nM | 709 nM | 333 nM
Nc1nc2c(c3cnccc13)C(c1ccc(Cl)c(Cl)c1)Cc1cnccc1-2 (stereo not given) | 14500 nM | 25100 nM | 2600 nM | 5480 nM | 7300 nM | 11100 nM | 18300 nM | 2340 nM | 646 nM | 11500 nM | 1880 nM | 4280 nM | 375 nM | 480 nM | 570 nM | 409 nM | 1180 nM | 384 nM | 241 nM | 449 nM
Cc1cccc(NC(=O)c2sc3nc4c(cc3c2N)C(=O)CCC4)c1 | > 74900 nM | 32500 nM | > 34600 nM | > 100000 nM | > 96300 nM | > 100000 nM | > 100000 nM | > 100000 nM | 126 nM | > 65800 nM | 1800 nM | 706 nM | 316 nM | 25000 nM | 2680 nM | 156 nM | 3070 nM | 393 nM | 30.2 nM | 212 nM
C[C@]12CC[C@H]3[C@@H](CCC4=CC(=O)CC[C@@]43C)[C@@H]1CC[C@@H]2c1csc(N)n1 | 28500 nM | 27200 nM | 19000 nM | 11200 nM | 21300 nM | 19100 nM | 24100 nM | 8180 nM | 10600 nM | 20800 nM | 11000 nM | 2980 nM | 3830 nM | 2500 nM | 6120 nM | 4200 nM | 5070 nM | 1650 nM | 2630 nM | 5280 nM
O=C1Oc2ccccc2C(=O)/C1=C1/C=C(c2ccccc2)SS1 | > 100000 nM | > 100000 nM | > 100000 nM | 71800 nM | > 100000 nM | > 100000 nM | > 100000 nM | 45200 nM | > 100000 nM | > 100000 nM |  |  |  |  |  |  |  |  |  | 
